From patent US10918644B2, “Chemotherapeutic drug composition” (YEDITEPE UNIVERSITESI, priority 2017, dated 2021)
Values joined by “and” are separate entries in the source; they are usually repeats but may differ in a detail not shown here. Equal entries are not always repeated. “Also recorded” adds a separate entry of the source.

What was measured:
[1] = tested on: HEK293 cells; test: WST-1 cell viability assay on healthy kidney cells (toxicity); format: cell-based, human
Method: (§1) The WST-1 assay was performed to determine cell viability. The working principle of this assay is based on the conversion of the stable tetrazolium salt WST-1 into soluble formazan by viable cells. During conversion of WST-1 to formazan, a color change that is measurable at 450 and 630 nm wavelengths occurs in the cell medium. In other words, the amount of formazan dye is proportional to the number of metabolically active (viable) cells. The color change was evaluated by measuring the absorbance in the ELISA device and the obtained values were analyzed using the Graph Pad Prism 7 database.
Human embryonic kidney (HEK293) cells were used as a cell model to test whether Everolimus and ABT-737 had any toxic effects on healthy kidney cells. HEK293 cells were treated with the drug composition (1 μM for Everolimus and 5 μM for ABT-737) for 3 days and the toxicity response was determined by measuring cell viability by WST-1 assay for 3 days.

[2] = tested on: Caki-1 cells; test: WST-1 cell viability assay, Caki-1 cells; format: cell-based
Method: as §1
(§2) To determine the toxic effect of Everolimus and ABT-737 on cell viability, primary A-498 and metastatic Caki-1 RCC cell lines that are resistant to drug Everolimus were used in this study and the toxic effect was determined by using the WST-1 method.
(§3) Everolimus and ABT-737 drugs were administered to A-498 and Caki-1 cells, which were seeded in 96-well culture plates, for three days to determine the appropriate dose for the combination. The effect of the drugs prepared at three different concentrations (1, 5, or 10 μM) on cell viability was determined using the WST-1 method. […] The amount of drug composition for Caki-1 (10,000 cells/well) metastatic cells was determined as 1 μM Everolimus and 10 μM ABT-737. […]

[3] = mouse, in vivo
Description: At the end of the experiment, the organs including thymus, heart, stomach, intestine, kidney, spleen, testis, lung, liver, and brain were taken from the animals in each group and were sent for pathological examination. […] At the same time, the metastatic focus in these tissues was also examined.

[4] = tested on: Everolimus-resistant RenCa (erRenCa) cells; test: In vivo tumor model with erRenCa cells injected into the dorsal area; parameters: species or system Balb/c mice; settings: for animals with tumor formation: 2 mg/kg Everolimus and/or 75 mg/kg ABT-737 intraperitoneally every other day from day 4, 11 injections, eight animals per group
Method: Everolimus stock solution was prepared by dissolving 10 mg lyophilized Everolimus in 1.043 ml DMSO (Dimethyl sulfoxide) (9.6 mg/ml) and ABT-737 stock solution was prepared by dissolving 10 mg ABT-737 in 1.229 ml DMSO (8.14 mg/ml). Stock concentration of both drugs was 10 mM. For in vitro conditions, dilutions were made in cell culture medium at concentrations ranging from 1-5 μM from Everolimus stock concentration. For in vivo conditions, the drug Everolimus that will be injected to animals was prepared by diluting the stock concentration in PBS (Phosphate-buffered saline) to a concentration of 2 mg/kg. For in vitro conditions, dilutions were made in cell culture medium at concentrations ranging from 1-10 μM from ABT-737 stock concentration. For in vivo conditions, the drug ABT-737 that will be injected to animals was prepared by diluting the stock concentration in PBS (Phosphate-buffered saline) to a concentration of 75 mg/kg. Prior to injection, the volume of the injected drug is adjusted to 200 μl by addition of PBS (Phosphate-buffered saline). The drugs were injected into the animals separately one minute apart without being mixed.
(§4) The process of tumor development was monitored.
These erRenCa kidney cancer cells were used as a cancer cell line to form a kidney cancer tumor model in animals. For this purpose, cells were subcutaneously injected into the dorsal area of Balb/c mice. […] The experiment was terminated at the end of 11 injections. […] In order to develop resistance to Everolimus, erRenCa cells inactivated their mTOR pathway and began to use the Bcl-2 pathway for their survival. Therefore, cancer cells could only undergo cell death after blocking the anti-apoptotic Bcl-2 survival pathway with the drug ABT-737.

[5] = tested on: Caki-1 cells; test: Annexin-V cell death detection assay, Caki-1 cells; format: cell-based; settings: 1 μM Everolimus and 10 μM ABT-737, or ABT-737 monotherapy; 24, 48 and 72 hours
[6] = tested on: mTOR pathway in Caki-1 cells; test: Western Blotting of mTOR pathway proteins, Caki-1 cells; format: cell-based; settings: 1 μM Everolimus alone or with 10 μM ABT-737, 24 hours
Method: (§5) A-498 and Caki-1 RCC cells were used to investigate the molecular effect of the Everolimus and ABT-737 drug composition on the mTOR pathway. A-498 cells and Caki-1 cells seeded in 6-well plates were treated for 24 hours with 1 μM Everolimus and 5 μM ABT-737 and 1 μM Everolimus and 10 μM ABT-737, respectively. At the end of 24 hours, proteins were isolated from the cells. These proteins were then used to determine the expression of proteins that play a key role in the mTOR pathway by performing the Western Blotting technique.

[7] = cited from earlier work; for prolonged progression-free survival: treatment of metastatic RCC
[8] = tested on: mTOR pathway in A-498 cells; test: Western Blotting of mTOR pathway proteins, A-498 cells; format: cell-based; settings: 1 μM Everolimus alone or with 5 μM ABT-737, 24 hours
Method: as §5

[9] = tested on: A-498 cells; test: WST-1 cell viability assay, A-498 cells; format: cell-based; settings: Everolimus monotherapy, 1, 5 or 10 μM, three days
Method: as §1, §2, §3

[10] = tested on: Everolimus-resistant RenCa (erRenCa) cells; test: WST-1 cell viability assay, Everolimus-resistant RenCa cells; format: cell-based, murine; settings: Everolimus 1, 5 and 10 μM, at the end of three days
Method: as §1
RenCa cells were made resistant to Everolimus for the use in in vivo experiments. In this regard, RenCa cells were seeded in 96-well culture plates. After 24 hours, the cells were treated with 1 μM Everolimus for 72 hours. At the end of 72 hours, the cells were washed with PBS (Phosphate-buffered saline) and treated with 10 μM Everolimus for an additional 72 hours. Cells that developed resistance to Everolimus were transferred to 6-well culture plates and were grown in an Everolimus-free medium. Cells reaching a density of 90% were transferred to T-75 culture plates and were grown for 2 months in a medium containing 1 μM Everolimus.
as §4

[11] = tested on: RenCa cells; test: WST-1 cell viability assay, RenCa cells; format: cell-based, murine; settings: Everolimus 1, 5 and 10 μM, after 48 hours of treatment
Method: as §1, §4

[12] = ABT-737 group, 75 mg/kg intraperitoneally every other day
[13] = Everolimus group, 2 mg/kg intraperitoneally every other day, 2 mg/kg

SMILES: CN(C)CC[C@H](CSc1ccccc1)Nc1ccc(S(=O)(=O)NC(=O)c2ccc(N3CCN(Cc4ccccc4-c4ccc(Cl)cc4)CC3)cc2)cc1[N+](=O)[O-] [ABT-737]
- decrease in the cell viability of healthy kidney cells ([1]; 5 μM ABT-737, third day of the treatment): did not cause any decrease
- decrease in cell viability ([2]; ABT-737 monotherapy, after 72 hours): 80%
- toxic effects on the animals (pathological examination of the tissues) [3]: did not show any toxic effects
- animals with tumor formation [4]: three of the eight
- Grade (WHO/ISUP, per animal H1-H8) [4, 12]: 4
- Necrosis (per animal H1-H8) [4, 12]: No
- Tumor (pathological examination, per animal H1-H8) ([4]; ABT-737 group, 75 mg/kg intraperitoneally every other day, 75 mg/kg): No tumor; also recorded: Renal cell carcinoma
- apoptosis mediated cell death (Annexin-V) [5]: more significant increase in the cell death compared to the combination

SMILES: CO[C@H]1C[C@@H]2CC[C@@H](C)[C@@](O)(O2)C(=O)C(=O)N2CCCC[C@H]2C(=O)O[C@H]([C@H](C)C[C@@H]2CC[C@@H](OCCO)[C@H](OC)C2)CC(=O)[C@H](C)/C=C(\C)[C@@H](O)[C@@H](OC)C(=O)[C@H](C)C[C@H](C)/C=C/C=C/C=C/1C [Everolimus]
- cytotoxic effect on healthy kidney cells ([1]; 1 μM Everolimus, 24 and 48 hours): did not show any cytotoxic effect
- decrease in the cell viability compared to untreated control cells ([1]; 1 μM Everolimus, 72 hour-treatment): 50%
- S6 protein phosphorylated at serine 240/244 (S6-S240/244P) [6]: decrease
- basal p70S6K protein expression ([6]; vs control cells): decreased
- p70S6K protein phosphorylated at threonine 389 (p70S6K-T389P) ([6]; vs control cells): decrease
- autophosphorylation of the mTOR kinase at serine 2448 (mTOR-S2448P) ([6]; vs untreated control cells): diminished
- response of cell viability to Everolimus (toxicology results) ([2]; Everolimus monotherapy, 1, 5 or 10 μM, three days): resistant
- toxic effects on the animals (pathological examination of the tissues) [3]: did not show any toxic effects
- animals with tumor formation [4]: four of the eight
- Grade (WHO/ISUP, per animal H1-H8) [4, 13]: 4 (3×) and 2
- Necrosis (per animal H1-H8) [4, 13]: No (7×) and Yes
- Tumor (pathological examination, per animal H1-H8) [4, 13]: Renal cell carcinoma; also recorded: No tumor
- increase of survival ([7]; advanced stage RCC, Phase III clinical trials, after failure of VEGF therapy): about 4.9 months
- prolonged progression-free survival [7]: up to 4.9 months
- S6 protein phosphorylated at serine 240/244 (S6-S240/244P) [8]: decrease
- basal p70S6K protein expression ([8]; vs control cells): decreased
- p70S6K protein phosphorylated at threonine 389 (p70S6K-T389P) ([8]; vs control cells): decrease
- autophosphorylation of the mTOR kinase at serine 2448 (mTOR-S2448P) ([8]; vs untreated control cells): diminished
- response of cell viability to Everolimus (toxicology results) [9]: resistant
- change in cell viability [10]: did not cause any change
- effect on cell viability [11]: caused toxic effects

SMILES: CNC(=O)c1cc(Oc2ccc(NC(=O)Nc3ccc(Cl)c(C(F)(F)F)c3)cc2)ccn1 [Sorafenib]
- prolonged progression-free survival [7]: up to 5.9 months

SMILES: CO[C@H]1C[C@@H]2CC[C@@H](C)[C@@](O)(O2)C(=O)C(=O)N2CCCC[C@H]2C(=O)O[C@H]([C@H](C)C[C@@H]2CC[C@@H](OC(=O)C(C)(CO)CO)[C@H](OC)C2)CC(=O)[C@H](C)/C=C(\C)[C@@H](O)[C@@H](OC)C(=O)[C@H](C)C[C@H](C)/C=C/C=C/C=C/1C [Temsirolimus]
- prolonged progression-free survival [7]: up to 3.8 months
